Assay [1] relates to colorectal DLD1 cancer cells. The experiment in a line: In vitro cytotoxicity MTS assay, colorectal DLD1. The format is cell-based, human. To be noted: 72 hours. The method, then:
(§1) A panel of human cancer cells, gastric NUGC3 and HR, nasopharyngeal HONE1, hepatocellular HEP G2 and HA-22T, colorectal DLD1, lung A549, prostate PC3, breast MCF7 and its adriamycin-resistant MCF7/ADR subline, uterus MES-SA and its adriamycin-resistant MES-SA/Dx5 subline, is purchased from Food Industry Research and Development Institute, Hsinchu, Taiwan R.O.C. or American Type Culture Collection, Manassas, Va. U.S.A., are used in in vitro cytotoxicity assays. The human cells are seeded at a cell density of 3000 or 4500 cells/100 μl/well in 96-well flat-bottom plates and incubated for 24 hours at 37° C. in a 5% CO2 incubator. The testing compounds are dissolved in dimethyl sulfoxide (DMSO) and further diluted into the culture medium for treatments of human cancer cells in vitro. The drug-containing media has a final DMSO concentration of ≦0.3%. The compounds of this invention are prepared in culture media for testing at a range of concentrations from 10, 1, 0.1, 0.01 to 0.001 μM. Each compound solution is (200 μl/well in duplicate) in the cell plates and is treated for 72 hours at 37° C., 5% CO2 in an incubator. Actinomycin D at 5 μM and 0.3% DMSO are used as the positive and vehicle controls, respectively. A colorimetric assay using 3-(4,5-dimethylthiazol-2-yl)-5-(3-carboxymethoxyphenyl)-2-(4-sulfophenyl)-2H-tetrazolium (MTS) and phenazine methosulfate (PMS) is used to determine the potency of the compounds. This assay measures cell viability based on the cellular activity in conversion of a tetrazolium salt into a colored soluble formazan product. The optical density (OD) values are measured at 490 nm with a 1420 multilabel counter VICTOR® from Wallac, Turku, Finland. All of the measured values are subtracted with that of the blank control wells without cells before further calculations. The efficacy data are expressed as a percentage normalized to the vehicle controls as calculated in the following formulae. Inhibitory potency (% of vehicle control)=[(OD490compound−OD490blank)/(OD490vehicle−OD490blank)]×100%. The concentration (IC50) of a test compound that inhibits 50% of the cellular activity is determined.
For orientation: Formazan colour is commonly taken as a measure of viable cells.

Assay [2] deals with hepatocellular HA-22T cancer cells. Put plainly: In vitro cytotoxicity MTS assay, hepatocellular HA-22T. Type of assay: cell-based, human. To be noted: 72 hours. The method, then:
as §1

The test system of assay [3] is hepatocellular HEP G2 cancer cells. Put plainly: In vitro cytotoxicity MTS assay, hepatocellular HEP G2. Type of assay: cell-based, human. To be noted: 72 hours. The method, then:
as §1

For assay [4], the system named is nasopharyngeal HONE1 cancer cells. Put plainly: In vitro cytotoxicity MTS assay, nasopharyngeal HONE1. Type of assay: cell-based, human. To be noted: 72 hours. The method, then:
as §1

The next assay deals with gastric HR cancer cells. Put plainly: In vitro cytotoxicity MTS assay, gastric HR. The format is cell-based, human. The conditions noted are these: 72 hours. The method, then:
as §1

Assay [5] relates to gastric NUGC3 cancer cells. Put plainly: In vitro cytotoxicity MTS assay, gastric NUGC3. The format is cell-based, human. To be noted: 72 hours. The method, then: as §1
For a further assay, the system named is lung A549 cancer cells. The experiment in a line: In vitro cytotoxicity MTS assay, lung A549. The format is cell-based, human. To be noted: 72 hours. The method, then:
as §1

Assay [6] deals with prostate PC3 cancer cells. Put plainly: In vitro cytotoxicity MTS assay, prostate PC3. Type of assay: cell-based, human. To be noted: 72 hours. The method, then: as §1
A further assay deals with breast MCF7 cancer cells. The experiment in a line: In vitro cytotoxicity MTS assay, breast MCF7. Type of assay: cell-based, human. The conditions noted are these: 72 hours. The method, then:
as §1

In assay [7] the test system is adriamycin-resistant MCF7/ADR subline. Put plainly: In vitro cytotoxicity MTS assay, adriamycin-resistant MCF7/ADR. The format is cell-based, human. To be noted: 72 hours. The method, then: as §1
Assay [8] deals with uterus MES-SA cancer cells. The experiment in a line: In vitro cytotoxicity MTS assay, uterus MES-SA. To be noted: 72 hours. Type of assay: cell-based, human. The method, then:
as §1

Assay [9] has as its system adriamycin-resistant MES-SA/Dx5 subline. The experiment in a line: In vitro cytotoxicity MTS assay, adriamycin-resistant MES-SA/Dx5. To be noted: 72 hours. Type of assay: cell-based, human. The method, then: as §1
The subject of assay [10] is rat aorta endothelial cells. Put plainly: Rat aorta tube formation assay (angiogenesis inhibition). The format is cell-based, Spraque-Dawley rats. Details: key: Noninhibitors are indicated by the symbol (−), meaning that the extent of endothelial cell growth is essentially at the same level as that of the control; The most potent inhibitors receive a score of (+++++), indicating essentially no measurable endothelial cell growth. The conditions noted are these: final conc. 0.3 μg/ml, 5 days. The method, then: The procedures are modified from previous reports (Burbridge and West 2001; Bauer et al. 2000; Nicosai and Ottinetti 1990a) and described as follows. Male Spraque-Dawley rats of 6-8 weeks old are purchased from the National Laboratory Animal Breeding and Research Center (Taipei, Taiwan). The animals are anesthetized with urethane (2 g/kg, intraperitoneal) and the thoracic aortas are quickly harvested in a laminar flow hood. The aortas are rinsed with ice-cold normal saline with 10 μg/ml gentamicin and the attached fibroadipose tissues are removed using micro-dissection scissors. The aortas are cross-sectioned into rings of 1 mm in thickness. A mixture of Matrigel®, purchased from BD Biosciences, solution and the EBM-II medium, purchased from BioWhittaker Inc., (1:1) with 2% FBS, 0.25 mg/ml, amphotericin B and 10 μg/ml gentamicin is prepared and added at 100 μl to each well of a 48-well plate. The mixture is allowed to gel at 37° C. Aorta rings are then placed onto the gelled matrix and embedded in an additional 150 μl per well of the mixture solution and allowed to gel at 37° C. The aorta rings are then covered with 125 μl of the EGM-II medium and incubated overnight in humidified incubator with 5% CO2/95% air at 37° C. After removal of the EGM-II from the established aorta cultures, the compound-containing media are applied at 300 μl per well to the cultures and then incubated in 5% CO2/95% air at 37° C. for 5 days. The cultures are then subject to the 3-[4,5-dimethylthiazol-2-yl]-2,5 diphenyl-2H-tetrazolium bromide (MTT) or 3-(4,5-dimethylthiazol-2-yl)-5-(3-carbomethoxyphenyl)-2H-tetrazolium (MTS) assay and OD490 nm values measured. The testing compounds are dissolved in dimethyl sulfoxide (DMSO) and prepared in EBM-II media with at a final concentration of DMSO less than 0.1%.
The capillary-like, tube structure of the outgrown rat aorta endothelial cells is easily visualized by MTT staining. The medium on top of the matrix is removed from the established aorta ring cultures. MTT solution of 5 mg/ml in saline is added to the cultures at 100 μl/well and the cultures are incubated in a CO2 incubator at 37° C. for 24 hr. The stained cultures are then examined under a microscope DMIRB from Leica and photos taken with a digital camera.
Inhibition activity is also assessed in the following manner. The reductive reaction of MTS initiated by the viable cellular mitochondrial activity is used as a basis for the measurement of cell viability (Cory et al. 1991; Gieni et al. 1995). To the rat aorta ring cultures 300 μl of a solution containing 100 μg MTS and 1 μg, phenazine methosulfate is added per well and incubated in 5% CO2/95% air at 37° C. for 24 hr. During the incubation, MTS is converted to formazan product. At the end of incubation, the solution overlaying the gel is well-mixed and 100 μl aliquots are transferred into a 96-well plate for measurement of OD490 nm with a spectrophotometer VICTOR™-II from Wallac Oy.
The compounds listed in Table 3 are screened for angiogenesis inhibition. The control compound, ASTA, is D-24851, N-[pyridin-4-yl]-[1-(4-chlorobenzyl)-indol-3-yl]-glyoxylic acid amide. Noninhibitors are indicated by the symbol (−), meaning that the extent of endothelial cell growth is essentially at the same level as that of the control.

`Cc1cc(NC(=O)C(=O)c2cn(Cc3ccno3)c3ccccc23)sn1` [Compound 54]: the half-inhibitory concentration (IC50) was 397 nM in [1]; 382 nM in [2]; above 10000 nM in assay [3]; 17 nM in assay [4]; 64 nM with gastric HR cancer cells; 27 nM in assay [5]. For the same compound, the IC50 in the assay on lung A549 cancer cells is 1670 nM; in [6] it was 725 nM; in the assay with breast MCF7 cancer cells, 5020 nM; in [7], 5410 nM; in assay [8] it was 268 nM; in assay [9], 333 nM. In assay [10], the “Inhibition Score” value is on record as “+++++”.

For the compound `CCc1cc(Cn2cc(C(=O)C(=O)Nc3cc(C)ns3)c3ccccc32)on1` [Compound 63], the concentration for half-maximal inhibition (IC50) in assay [1] is 705 nM; in assay [2], 559 nM; in [3] it was 2470 nM; in assay [4], 35 nM; with gastric HR cancer cells, 78 nM; in assay [5], 118 nM. In addition, the IC50 with lung A549 cancer cells was found to be 1000 nM; in assay [6], 636 nM; in the assay on breast MCF7 cancer cells, 747 nM; in assay [7] it was 5070 nM; in [8], 312 nM; in assay [9] it was 330 nM. Besides, in assay [10], the “Inhibition Score” value is “+++++”.

As to `Cc1cc(NC(=O)C(=O)c2cn(Cc3ccsc3)c3ccccc23)sn1` [Compound 45], the IC50 in assay [1] was 593 nM; in assay [2], 2400 nM; in assay [3], 1690 nM; in assay [4] it was 48 nM; with gastric HR cancer cells it was 316 nM; in assay [5], 465 nM. Further, the IC50 was determined as 611 nM in the assay on lung A549 cancer cells; 824 nM in assay [6]; 611 nM with breast MCF7 cancer cells; 2350 nM in assay [7]; 306 nM in [8]; 406 nM in assay [9]. In addition, the “Inhibition Score” value in assay [10] is “+++++”.

In the case of `O=C(Nc1ccc2ncccc2c1)C(=O)c1cn(Cc2cscn2)c2ccccc12` [Compound 77], the IC50 was 1500 nM in assay [1]; 469 nM in assay [2]; above 10000 nM in assay [3]; 380 nM in assay [4]; 721 nM in the assay on gastric HR cancer cells; 458 nM in [5]. For the same compound, the IC50 with breast MCF7 cancer cells stood at 1320 nM; in assay [7], 595 nM. Further, in assay [10], the “Inhibition Score” value is recorded as “+++++”.

In the case of `N#Cc1ccc(Cn2cc(C(=O)C(=O)Nc3ccc4ncccc4c3)c3ccccc32)cc1` [Compound 3], the IC50 in [1] was 665 nM; in assay [2], 510 nM; in [3], 383 nM; in [4], 174 nM; in the assay with gastric HR cancer cells, 266 nM; in assay [5], 279 nM. For the same compound, the IC50 in the assay with lung A549 cancer cells was determined as 6400 nM; in assay [6], 9630 nM; in the assay on breast MCF7 cancer cells, 640 nM; in assay [7], 665 nM; in assay [8], 4710 nM; in assay [9], 6090 nM. The “Inhibition Score” value in [10] is given as “+++++”.

Turning to `Cc1cc(NC(=O)C(=O)c2cn(Cc3ccco3)c3ccccc23)sn1` [Compound 40], the IC50 in assay [1] came to 981 nM; in [2], 1260 nM; in [3], 7720 nM; in assay [4], 56 nM; in the assay on gastric HR cancer cells, 295 nM; in [5], 395 nM. For the same compound, the IC50 in the assay with lung A549 cancer cells was 746 nM; in assay [6] it was 398 nM; with breast MCF7 cancer cells it was 1160 nM; in assay [7] it was 1170 nM; in [8] it was 235 nM; in [9] it was 263 nM. The “Inhibition Score” value in [10] is reported as “+++++”.

Consider `O=C(Nc1ccc2ncccc2c1)C(=O)c1cn(Cc2ccco2)c2ccccc12` [Compound 42], for which the IC50 in assay [1] worked out at 799 nM; in assay [2], 345 nM; in [3] it was 3980 nM; in assay [4], 296 nM; with gastric HR cancer cells, 453 nM; in assay [5], 634 nM. Further, the IC50 in the assay on breast MCF7 cancer cells turned out to be 928 nM; in assay [7], 527 nM. Moreover, the “Inhibition Score” value in assay [10] is given as “+++++”.

With `O=C(Nc1cc(-c2ccc(Cl)cc2)no1)C(=O)c1cn(Cc2ccc(Cl)cc2)c2ccccc12` [Compound 38], the IC50 in assay [1] turned out to be 3720 nM; in [2], 2240 nM; in assay [3], 3460 nM; in assay [4], 487 nM; in the assay with gastric HR cancer cells it was 2980 nM; in assay [5] it was 2010 nM. Also, the IC50 in the assay on breast MCF7 cancer cells was 4260 nM; in assay [7], 4080 nM. In addition, the “Inhibition Score” value in assay [10] was “−”.

On to `Cc1cc(NC(=O)C(=O)c2cn(Cc3cc(C(C)C)no3)c3ccccc23)sn1` [Compound 65], for which the half-maximal inhibitory concentration (IC50) in [1] is 609 nM; in assay [2], 302 nM; in [3], 720 nM; in [4] it was 50 nM; with gastric HR cancer cells, 324 nM; in assay [5] it was 242 nM. In addition, the IC50 came out at 700 nM in the assay on breast MCF7 cancer cells and 710 nM in assay [7]. The “Inhibition Score” value in assay [10] is “+++++”.

For the compound `Cc1cc(NC(=O)C(=O)c2cn(Cc3ccc(C#N)cc3)c3ccc(Br)cc23)sn1` [Compound 24], the IC50 in [1] turned out to be 5800 nM; in assay [2] it was 2840 nM; in [3], 3590 nM; in [4] it was 401 nM; in the assay with gastric HR cancer cells, 5460 nM; in assay [5], 1720 nM. In addition, the IC50 in the assay with breast MCF7 cancer cells turned out to be 7650 nM; in [7] it was 2550 nM. Besides, the “Inhibition Score” value in [10] is “−”.

What is called IC50 is the point on the concentration scale where inhibition reaches its midpoint.
